According to PMC10883292, “Estrogen Receptor Mutations as Novel Targets for Immunotherapy in Metastatic Estrogen Receptor–positive Breast Cancer” (Cancer Research Communications, 2024):

Legend:
[1] = system: peptide-specific CD8+ T cells from PBMC of healthy female HLA-A2 positive donors; test: Peptide-specific CTL tetramer assay and expansion; assay type: cell-based, human; details: for average frequency fold change (vs. pre-expansion): after CTL expansion with peptide-pulsed DCs, IL7, IL2; for average frequency fold change (vs. pre-expansion) / average frequency of peptide-specific CTLs in peripheral blood: tetramer staining; for average frequency of peptide-specific CTLs in peripheral blood: pre-expansion, PBMC of healthy females, 3 donors; for tetramer expansion: post- vs pre-expansion, in words
Source text: Healthy donor peripheral blood samples were purchased from the local blood bank and used under an MD Anderson Cancer Center Institutional Review Board–approved protocol. Because the samples came from deidentified healthy donors, the Institutional Review Board determined that informed consent was not required. Peripheral blood mononuclear cells (PBMC) were isolated from buffy coats of healthy female HLA-A2 positive donors by Ficoll/Histopaque (Sigma-Aldrich) density gradient centrifugation and split equally into two groups. One group of PBMC was used to assess the pre-expansion frequency of the peptide-specific CTLs. These cells were immediately stained with FITC-conjugated anti-CD3 and APC-H7–conjugated anti-CD8 to select for CD8^+ T cells. Pacific blue (PB)-conjugated anti-CD4, anti-CD14, anti-CD16, anti-CD19, and anti-CD56 (BD Biosciences) were used as a dump gate to gate out other immune cell types; PE-conjugated mutant peptide and APC-conjugated wild-type peptide tetramers (Baylor College of Medicine, MHC tetramer core, Houston, TX) were used to enumerate the percentage of peptide-specific CD8^+ T cells present in healthy PBMCs. The analysis was performed using flow cytometry.
The second group of donor PBMC was used to assess the expansion potential of the peptide-specific CTLs. To expand peptide-specific CTLs, dendritic cells (DC) were matured from adherent monocytes by the addition of GMCSF (100 ng/mL, Sanoti), IL4 (50 ng/mL, rhIL4, Tonbo Biosciences), and TNFα (25 ng/mL, BioLegend). Lymphocytes from the same donor were separated and cocultured with 40 µg/mL of mutant and wild-type peptides. After 5 days, DCs were harvested and cocultured with autologous CD8^+ T cells for an additional 7 days. The cocultured cells were supplemented with IL7 (10 ng/mL; BioLegend) for CTL activation and IL2 (25 ng/mL; R&D Systems) for CTL expansion. After CTL activation and expansion, cells were stained and analyzed as described above.
FIGURE 3 Peptide-specific expansion of CD8^+ T cells. PBMCs from healthy donors were isolated and expanded as described in the Materials and Methods. Tetramer staining was performed pre- and post-expansion to quantify frequencies of peptide-specific CD8^+ T cells. A, Wildtype-1, E380Q. B, Wildtype-2, Y537S, D538G. Data represents three independent experiments, from 3 separate donors, performed in triplicate. Statistical significance was determined via comparison of pre-expansion versus post-expansion CD8^+tetramer^+ population using unpaired Student t test. *, P < 0.05.

[2] = system: peptide-pulsed T2 cells; test: Calcein-AM release cytotoxicity assay, peptide-pulsed T2 cells; assay type: cell-based, human; details: 20:1 effector:target ratio, 4-hour calcein-AM release, T2 cells pulsed with corresponding peptide, peptide-specific CTLs from healthy female donors
Description: Healthy donor lymphocytes and DCs were cocultured in 6-well plates supplemented with IL7 and IL2, as described above. On days 12–14, cultured peptide-specific CTLs were harvested and peptide-specific cytotoxicity was assessed using a standard 4-hour Calcein-AM (Sigma-Aldrich) release assay as described previously ([24]). Briefly, target cells, including T2 cells pulsed with mutant and wild-type peptides, were labeled with 5 µg/mL calcein-AM for 15 minutes in the dark. After two washes, cells were adjusted to 2 × 10^5/mL, plated on a Terasaki plate, and cocultured with peptide-specific CTLs at effector:target ratios of 20:1 and 5:1. After 4 hours of incubation, Trypan blue was added to quench the reaction. The fluorescence was measured using a Cytation 3 Imaging Reader (BioTek). The percentage of specific cell lysis was calculated using the following formula: […]
T2 cells were pulsed with corresponding peptides and labeled with calcein-AM. Cytotoxicity was determined by a standard calcein-AM release assay. Wildtype-1 (A), E380Q (B), Wildtype-2 (C), Y537S (D), D538G (E). Non-pulsed T2 cells were used as negative controls. Statistical significance was determined via unpaired Student t test. Data represent the average of three to four experiments from separate healthy female donors run in triplicate. *, P < 0.05; ***, P < 0.001.

[3] = target: T1, HLA-A*0201 on T2 cells (Homo sapiens, UniProt P04439, D140Y/D185E/D98H/E176V/E277Q/G131W/G231S/I119V/I121R/I166T/I218V/L300P/L318F/N151K/N90K/P208A/P217A/Q86G/Q94H/R138H/R169H/T345S); test: T2 dissociation (stability) assay; assay type: cell-based; details: peptide:HLA-A*0201 dissociation; T2 cells pulsed 8–12 hours, washed; MFI normalized to time 0; linear regression; three independent experiments in triplicate
T1 construct: T2 cells were pulsed with indicated peptides for 8–12 hours, washed, and then stained for surface HLA-A*0201 expression; host or cells: T2 cells
Description: T2 binding assays were performed as described previously ([23]). […] Surface expression of HLA-A*0201 in T2 cells was determined by staining with an anti-HLA-A2 mAb (BB7.2, BD Biosciences). The median fluorescence intensity (MFI) was measured using a FACSCando II (BD Biosciences). The peptide half-life was calculated by linear regression using GraphPad Prism software.
FIGURE 2 Kinetics of peptide: HLA-A*0201 dissociation. T2 cells were pulsed with indicated peptides for 8–12 hours, washed, and then stained for surface HLA-A*0201 expression at indicated timepoints for wildtype-1 and E380Q (A), wildtype-2 and Y537S (B), wildtype-2 and D538G (C). MFI for each timepoint was normalized to initial staining (time = 0). Linear regression analysis was used to plot lines of best fit for each individual peptide, and half-life for each peptide is shown in Table 2. Data are pooled from three independent experiments performed in triplicate.

| Sequence | average frequency fold change (vs. pre-expansion) [1] [fold] | average frequency of peptide-specific CTLs in peripheral blood [1] [%] | specific cytotoxicity [2] [%] | Half-Life [3] [h] | tetramer expansion [1] |
| --- | --- | --- | --- | --- | --- |
| LLQCAWLEI [E380Q, ESR1-derived nonameric peptide with E380Q mutation] | 5.77 | 0.03 | 28.45 | 7.2 | – |
| PLYDLLLEM [Wildtype-2, wild-type ESR1-derived nonameric peptide associated with Y537S and D538G] | – | – | 13.27 | 5.9 | modest expansion |
| PLSDLLLEM [Y537S, ESR1-derived nonameric peptide with Y537S mutation] | 4.85 | 0.18 | 30.03 | 6.2 | – |
| PLYGLLLEM [D538G, ESR1-derived nonameric peptide with D538G mutation] | 4.31 | 0.17 | 30.48 | 6.0 | – |
| LLECAWLEI [Wildtype-1, wild-type ESR1-derived nonameric peptide associated with E380Q] | – | – | 25.99 | 5.4 | did not show tetramer expansion |
